Structures are written as SMILES. Like-named read-outs stand apart in the source and are kept apart here.

What all share (format): cell-based
Assay [1] concerns the target T1, D2R long isoform (PathHunter) (Homo sapiens, UniProt P14416).
T1 construct: gene DRD2; long isoform in CHO-K1 PathHunter cells (DiscoverX), beta-galactosidase enzyme-fragment complementation with beta-arrestin; reporter tags not detailed
The experiment in a line: PathHunter beta-arrestin recruitment, agonist mode. From the text:
PathHunter beta-arrestin recruitment, agonist mode on D2R long isoform (PathHunter)
(In general: Activated receptors often draw arrestin, which recruitment assays turn into a signal.)

Assay [2] concerns the target T2, human D2R long isoform (Homo sapiens, UniProt P14416).
T2 construct: gene DRD2; full-length long isoform stably expressed in CHO-K1 cells from DiscoverX, HitHunter cAMP assay
The experiment in a line: HitHunter cAMP assay, inhibition of forskolin-stimulated cAMP, agonist mode. The source says: HitHunter cAMP assay, inhibition of forskolin-stimulated cAMP, agonist mode on human D2R long isoform
(Changes in cAMP serve as a functional read-out for many G protein-coupled receptors.)

Assay [3] addresses T2, human D2R long isoform. The experiment in a line: antagonism of D2R cAMP and beta-arrestin signaling (data not shown). The conditions noted are these: CHO-K1.
[4] abbreviates: read-out: cAMP inhibition assay / EC50 (μM ± S.E.M.).
Setting [5] is: read-out: cAMP inhibition assay / EC50 (μM ± SEM).

T1 sequence (P14416 whole entry, the tested form may be a part, canonical isoform): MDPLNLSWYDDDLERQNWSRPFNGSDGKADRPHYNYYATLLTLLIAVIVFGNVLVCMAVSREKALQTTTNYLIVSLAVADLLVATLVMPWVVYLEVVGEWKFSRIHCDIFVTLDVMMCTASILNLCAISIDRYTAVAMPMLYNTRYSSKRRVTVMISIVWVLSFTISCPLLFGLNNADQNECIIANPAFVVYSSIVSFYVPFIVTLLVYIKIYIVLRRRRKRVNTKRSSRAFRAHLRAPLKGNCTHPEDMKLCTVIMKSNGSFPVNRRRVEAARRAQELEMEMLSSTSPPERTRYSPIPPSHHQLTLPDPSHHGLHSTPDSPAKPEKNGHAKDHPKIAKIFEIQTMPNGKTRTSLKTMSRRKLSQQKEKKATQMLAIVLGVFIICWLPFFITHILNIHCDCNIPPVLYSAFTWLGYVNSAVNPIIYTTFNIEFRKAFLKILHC
T2 sequence (P14416 whole entry, canonical isoform): as the sequence (P14416 whole entry, the tested form may be a part, canonical isoform) above

In turn, `c1ccc2cc(CN3CCN(c4cnccn4)CC3)ccc2c1` [compound 37] gave an EC50 in assay [1] of 24800 ± 15500 nM.

Turning to `c1cnc(N2CCN(Cc3cccc4ccccc34)CC2)nc1` [compound 46], the EC50 in assay [1] worked out at 14500 ± 1500 nM; in assay [2] (setting [4]), 8.5 ± 4 µM.

With `c1cc2ccc(CN3CCN(C4CCCCC4)CC3)cc2[nH]1` [compound 50], the “antagonism of D2R cAMP and beta-arrestin signaling (data not shown)” value in assay [3] is on record as “compounds with cyclohexane substituents retained binding affinity for the D2R”.

Regarding `Oc1c(CN2CCN(c3ccccc3)CC2)cc(Cl)c2cccnc12` [compound 23], the EC50 in assay [2] (setting [4]) came to 2.8 ± 1.2 µM.

`Oc1c(CN2CCN(C3CCCCC3)CC2)cc(Cl)c2cccnc12` [compound 24]: the “antagonism of D2R cAMP and beta-arrestin signaling (data not shown)” value in assay [3] was “compounds with cyclohexane substituents retained binding affinity for the D2R”.

For the compound `Oc1c(CN2CCN(c3ccccn3)CC2)ccc2cccnc12` [compound 2], the EC50 was 900 ± 300 nM in assay [1] and 0.3 ± 0.09 µM in assay [2] (setting [5]).

Take `c1ccc(N2CCN(Cc3cccc4ccccc34)CC2)nc1` [compound 12]: the EC50 in assay [2] (setting [5]) is 0.7 ± 0.7 µM.

As to `c1cnc(N2CCN(Cc3ccc4cc[nH]c4c3)CC2)nc1` [compound 43], the EC50 was found to be 100 ± 10 nM in assay [1] and 0.04 ± 0.01 µM in assay [2] (setting [4]).

Regarding `c1cncc(N2CCN(Cc3cccc4ccccc34)CC2)c1` [compound 28], the EC50 in assay [1] was found to be 7700 ± 300 nM; in assay [2] (setting [4]), 13.3 ± 8.6 µM.

Regarding `Clc1c(CN2CCN(c3ccccn3)CC2)ccc2cccnc12` [compound 7], the EC50 worked out at 7300 ± 1800 nM in assay [1] and 6.6 ± 5.5 µM in assay [2] (setting [5]).

Turning to `c1cnc(N2CCN(Cc3ccc4ccccc4c3)CC2)nc1` [compound 45], the EC50 in assay [1] came out at 2600 ± 1100 nM; in assay [2] (setting [4]) it was 0.8 ± 0.1 µM.

With `Oc1c(CN2CCN(c3ccccn3)CC2)cc(Br)c2cccnc12` [compound 3], the EC50 in assay [2] (setting [5]) turned out to be 7.9 ± 2.1 µM.

Turning to `COc1c(CN2CCN(c3ccccn3)CC2)cc(Cl)c2cccnc12` [compound 4], the EC50 in assay [2] (setting [5]) amounted to 13.4 ± 11.7 µM.

Turning to `Oc1c(CN2CCN(c3ncccn3)CC2)cc(Cl)c2cccnc12` [compound 19], the EC50 in assay [1] was determined as 500 ± 300 nM; in assay [2] (setting [4]), 0.7 ± 0.2 µM.

For `Oc1c(CN2CCN(c3ccccn3)CC2)cc(Cl)c2cccnc12` [compound 1, MLS1547], in assay [2] (setting [5]), the EC50 stood at 2.2 ± 0.6 µM.

Regarding `c1cnc(N2CCN(Cc3cc4ccccc4[nH]3)CC2)nc1` [compound 44], the EC50 in assay [1] is 1000 ± 200 nM; in assay [2] (setting [4]) it was 0.6 ± 0.5 µM.

Take `c1ccc2c(CN3CCN(c4cnccn4)CC3)cccc2c1` [compound 38]: in assay [2] (setting [4]), the EC50 is 27.3 ± 18.2 µM.

In the case of `Oc1c(CN2CCN(c3cnccn3)CC2)cc(Cl)c2cccnc12` [compound 18], in assay [2] (setting [4]), the EC50 came to 3.5 ± 3.4 µM.

With `c1cncc(N2CCN(Cc3ccc4cc[nH]c4c3)CC2)c1` [compound 25], the EC50 in assay [1] was above 39000 nM.

The record behind these values is article PMC5826336 (Frontiers in Synaptic Neuroscience, 2018).
